Measured values as given in patent US20240132478A1, “COCRYSTAL” (Syndesi Therapeutics SA, priority 2020, published 2024).
Where two headings read alike, the source gives them in different places.

Key:
Type in all cases: physicochemical
[1] = Gravimetric Vapour Sorption (GVS) moisture sorption isotherm; conditions: for GVS reversible water uptake: between 0-90% RH; for Hygroscopicity: in words, by GVS
Description: Sorption isotherms were obtained using a SMS DVS Intrinsic moisture sorption analyser, controlled by DVS Intrinsic Control software. The sample temperature was maintained at 25° C. by the instrument controls. The humidity was controlled by mixing streams of dry and wet nitrogen, with a total flow rate of 200 ml/min. The relative humidity was measured by a calibrated Rotronic probe (dynamic range of 1.0-100% RH), located near the sample. The weight change, (mass relaxation) of the sample as a function of % RH was constantly monitored by a microbalance (accuracy ±0.005 mg). Typically, 5-30 mg of sample was placed in a tared mesh stainless steel basket under ambient conditions. The sample was loaded and unloaded at 40% RH and 25° C. (typical room conditions). A moisture sorption isotherm was performed as outlined below (2 scans per complete cycle). The standard isotherm was performed at 25° C. at 10% RH intervals over a 0-90% RH range. Typically, a double cycle (4 scans) was carried out. Data analysis was carried out within Microsoft Excel using the DVS Analysis Suite.
The sample was recovered after completion of the isotherm and re-analysed by XRPD.

[2] = Storage stability at elevated temperature and humidity (XRPD and HPLC purity after storage); conditions: for XRPD after storage at 40° C./75% RH: 7 days; for Stability at 25° C./97% RH and 40° C./75% RH: XRPD after storage; for Stability to increased temperature and humidity: in words, increased temperature (40° C.) and high humidity; for Storage: XRPD pattern: 40° C./75% RH, after 7 days
Description: Bruker AXS D8 Advance: XRPD diffractograms were collected on a Bruker D8 diffractometer using Cu Kα radiation (40 kV, 40 mA) and a θ-2θ goniometer fitted with a Ge monochromator. The incident beam passes through a 2.0 mm divergence slit followed by a 0.2 mm anti-scatter slit and knife edge. The diffracted beam passes through an 8.0 mm receiving slit with 2.5° Soller slits followed by the Lynxeye Detector. The software used for data collection and analysis was Diffrac Plus XRD Commander and Diffrac Plus EVA respectively. Samples were run under ambient conditions as flat plate specimens using powder as received. The sample was prepared on a polished, zero-background (510) silicon wafer by gently pressing onto the flat surface or packed into a cut cavity. The sample was rotated in its own plane. The details of the data collection method are: • Angular range: 2 to 42° 2θ • Step size: 0.05° 2θ • Collection time: 0.5 s/step (total collection time: 6.40 min)
Purity analysis was performed on an Agilent Ip 100/Infinity 111260 series system equipped with a diode array detector and using OpenLAB software. The full method details are provided below:
The three potential cocrystals were characterised using DSC, 1H NMR, TGA and by evaluating their stability with XRPD after 7 or 8 days of being stored at 40° C./75% RH. All three cocrystals were unchanged by XRPD after storage at 40° C./75% RH and none had significant amounts of solvent present (Table 28). The 4 HBA cocrystal appeared to have a similar melt to the starting material (ca. 85° C.). […] All initially appeared to have a 1:1 stoichiometry. […]

[3] = Thermo-Gravimetric Analysis (TGA)
Description: TA Instruments Discovery TGA: TGA data were collected on a TA Instruments Discovery TGA, equipped with a 25 position auto-sampler. Typically, 5 10 mg of each sample was loaded onto a pre-tared aluminium DSC pan and heated at 10° C./min from ambient temperature to 350° C. A nitrogen purge at 25 mlmL/min was maintained over the sample. The instrument control software was TRIOS and the data were analysed using Universal Analysis.

[4] = Differential Scanning Calorimetry (DSC); conditions: for Melting point (onset): * = multiple thermal events; for DSC Endotherm, enthalpy / DSC Endotherm, onset temp: single endotherm; for DSC Endotherm, onset temp: followed by exothermic event
Description: TA Instruments Q2000: DSC data were collected on a TA Instruments Q2000 equipped with a 50 position auto sampler. Typically, 0.5 3 mg of each sample, in a pin-holed aluminium pan, was heated at 10° C./min from 25° C. to 235° C. A purge of dry nitrogen at 50 mlmL/min was maintained over the sample. The instrument control software was Advantage for Q Series and Thermal Advantage and the data were analysed using Universal Analysis or TRIOS.
TA Instruments Discovery DSC: DSC data were also collected on a TA Instruments Discovery DSC equipped with a 50 position auto-sampler. Typically, 0.5 3 mg of each sample, in a pin-holed aluminium pan, was heated at 10° C./min from 25° C. to 235° C. A purge of dry nitrogen at 50 mlmL/min was maintained over the sample. The instrument control software was TRIOS and the data were analysed using TRIOS or Universal Analysis.

[5] = Variable temperature XRPD (VT-XRPD)
Description: Non-ambient conditions: For variable temperature (VT-XRPD) experiments samples were mounted on an Anton Paar DHS 900 hot stage at ambient conditions. The sample was then heated to the appropriate temperature at 10° C./min and subsequently held isothermally for 2 minutes before data collection. Samples were prepared and analysed on a silicon wafer mounted to the hot stage using a heat-conducting paste.

[6] = Storage stability at elevated temperature and humidity (XRPD and HPLC purity after storage)

Hygroscopicity (GVS) [1] | XRPD post-GVS [1] | Hygroscopicity [1] | XRPD after storage at 40° C./75% RH [2] | Stability at 25° C./97% RH and 40° C./75% RH [2] | Stability to increased temperature and humidity [2] | Melting point (onset) [4] | Storage: XRPD pattern [2] | DSC Endotherm, enthalpy [4] [J/g] | DSC Endotherm, onset temp [4] [°C] | VT-XRPD temperature at which sample melted [5] | Storage: XRPD pattern ([6]; 25° C./97% RH, after 7 days) | Compound | GVS reversible water uptake [1] | VT-XRPD pattern on heating [5] | other results
Non-hygroscopic | RH, unchanged by XRPD post-GVS | non-hygroscopic | 7 days: Unchanged | Stable, | stable | 87.7° C.* |  |  |  |  |  | O=C(O)c1ccc(O)cc1.O=C1C[C@H](c2cc(F)c(F)c(F)c2)CN1Cn1ncnc1Cl [4-HBA Pattern 1] | ~0.11% w/w reversible water uptake between 0-90% | XRPD pattern changes slightly on heating between 60 °C | TGA w/w loss ([3]; from 114-268° C., followed by continual decomposition): 29.0% w/w loss from 114-268 °C; DSC 1st Endotherm, enthalpy [4]: 8 J/g; DSC 1st Endotherm, onset temp [4]: 70.6 °C; DSC 2nd Endotherm, enthalpy [4]: 56 J/g; DSC 2nd Endotherm, onset temp [4]: 87.7 °C; DSC Broad exotherm, enthalpy [4]: 19 J/g; DSC Broad exotherm, onset temp [4]: 110 °C; Storage: Purity ([6]; 25° C./97% RH, 11 days): Purity: 99.9%; Storage: XRPD pattern ([6]; 25° C./97% RH, after 11 days): XRPD pattern unchanged after 11 days; Storage: Purity ([6]; 40° C./75% RH, 11 days): Purity: 99.7%; Storage: XRPD pattern ([6]; 40° C./75% RH, after 11 days): XRPD pattern unchanged after 11 days
Slightly hygroscopic | Some changes by XRPD post-GVS | only slightly hygroscopic |  | Stable, | remains stable | 138.2 °C | XRPD pattern unchanged after 7 days | 91 | 138.2 | melted at ca. 139 °C | XRPD pattern unchanged after 7 days | O=C(O)c1ccc(O)cc1O.O=C(O)c1ccc(O)cc1O.O=C1C[C@H](c2cc(F)c(F)c(F)c2)CN1Cn1ncnc1Cl [2,4-DHBA Pattern 1] | 0.53% w/w reversible water uptake between 0-90% | XRPD pattern remained unchanged until the sample | XRPD post-GVS ([1]; sample re-analysed by XRPD after isotherm): slight changes; TGA mass loss prior to dissociation/degradation [3]: No significant mass loss prior to dissociation/; TGA w/w loss on dissociation/degradation ([3]; followed by continual decomposition): degradation then 43.4% w/w loss followed by continual; Storage: Purity ([6]; 25° C./97% RH, after ca 1 month on storage): Purity: 99.7% (after ca 1 month on storage); Storage: Purity ([6]; 40° C./75% RH, after ca 1 month on storage): Purity: 97.9% (after ca 1 month on storage); XRPD after storage at 40° C./75% RH ([6]; 8 days): 8 days: Unchanged
 |  |  |  | Stable, |  | 113.3 °C |  |  |  |  |  | O=C(O)c1cc(O)cc(O)c1.O=C1C[C@@H](c2cc(F)c(F)c(F)c2)CN1Cn1ncnc1Cl [ARP-1725-71-02C] |  |  | 
Slightly hygroscopic | Unchanged by XRPD post-GVS | only slightly hygroscopic | 7 days: Unchanged |  | remains stable |  | XRPD Pattern unchanged after 7 days | 85 | 113.3 | it melted at ca. 113 °C | XRPD Pattern unchanged after 7 days | O=C(O)c1cc(O)cc(O)c1.O=C1C[C@H](c2cc(F)c(F)c(F)c2)CN1Cn1ncnc1Cl [3,5-DHBA Pattern 1] | ~0.2% w/w reversible water uptake | XRPD pattern remained unchanged until | TGA onset of dissociation/decomposition [3]: ca. 120 °C; Storage: Purity ([6]; 25° C./97% RH, 7 days): Purity: 99.9%; Storage: Purity ([6]; 40° C./75% RH, 7 days): Purity: 99.7%
